Measured values from patent US20080124270A1, “Compounds Useful as Metal Chelators” (BRACCO IMAGING S.P.A., priority 2003, published 2008).

Tests used:
[1] = relaxivity r1 of the gadolinium complex; type: physicochemical; conditions: for r1: relaxivity of the compound when complexed with gadolinium
Description: (§1) One measure of a complex of a paramagnetic metal and a chelation compound is its signal enhancing effect when used as a contrast agent for MRI. The effectiveness of a paramagnetic complex (e.g., a complex including Gd (III)) in decreasing the relaxation time (T1) of the vicinal water protons is an intrinsic property called relaxivity, r1, which is given by the following equation: […]

[2] = relaxivity r1 of the gadolinium complex in Sucrose 80; type: physicochemical; conditions: relaxivity of the compound when complexed with gadolinium
Description: as §1

r1 [1] [mM⁻¹ s⁻¹] | relaxivity compared to DOTA or DO3A ([1]; when it complexes gadolinium, result in words) | r1 in Sucrose 80 [2] [mM⁻¹ s⁻¹] | SMILES
4.1 | surprisingly high relaxivity | 65 | O=C(O)CN1CCN(CC(=O)O)CCN(CP(=O)(O)O)CCN(CC(=O)O)CC1 [MPDO3A (Na), 10-Phosphonomethyl-1,4,7,10-tetraazacyclododecane-1,4,7-triacetic acid]
3.5 |  | 35 | O=C(O)CN1CCN(CC(=O)O)CCN(CC(=O)O)CCN(CC(=O)O)CC1 [DOTA, 1,4,7,10-tetraazacyclododecane-1,4,7,10-tetraacetic acid, reference compound]
4.1 |  | 64 | CC(N1CCN(CC(=O)O)CCN(CC(=O)O)CCN(CC(=O)O)CC1)P(=O)(O)O (stereo not shown) [EPDO3A (Na), 10-(1-phosphonoethyl)-1,4,7,10-tetrazacycododecane-1,4,7-triacetic acid]
